In general, IC50 refers to the concentration that gives 50% inhibition. In general, IC90 refers to the point of the concentration-response curve where the effect stands at 90%. A higher IC90 goes with weaker potency. The term CC50 denotes the concentration giving 50% cytotoxicity. Lower therefore signals harm at low concentration.

For the assay, the system named is M. tuberculosis H37Rv growth inhibition. In words: M. tuberculosis H37Rv growth inhibitors, H37Rv strain (AID 1626). The following applies: for IC90: measured here: IC90 against H37Rv; for CC50: measured here: Vero cell cytotoxicity.

Regarding `CCOC(=O)c1ccc(NC(=O)CCc2nc(-c3ccccc3)no2)cc1`, the IC50 was 2.32 µM, the IC90 was more than 100 µM and the CC50 was more than 40 µM.

`CCOc1ccc(CN(C)C(=O)CCl)cc1`: the IC50 was 26.7 µM, the IC90 was more than 100 µM and the half-maximal cytotoxic concentration (CC50) amounted to 12.7 µM.

On to `CCn1cc(CNC(=O)c2cc([N+](=O)[O-])c(C)c([N+](=O)[O-])c2)cn1`, for which the IC50 is 0.547 µM and the IC90 came to 0.874 µM.

For the molecule `CCC(=O)Nc1ccc2ccccc2c1`, the IC50 is 46.5 µM and the IC90 is more than 100 µM.

In the case of `CCOC(=O)CC(=O)Nc1ccc(C(=O)OCC)cc1`, the IC50 is 10 µM and the IC90 is more than 100 µM.

In the case of `Cn1c(-c2c(N)n(CCc3ccccc3)c3nc4ccccc4nc23)nc2ccccc21`, the IC50 is 1.83 µM, the concentration for an effect of 90% (IC90) worked out at 28.4 µM and the 50% cytotoxic concentration (CC50) was found to be 35.1 µM.

`O=C(COc1ccc(Cl)cc1)Nc1ccc2c(c1)CCC2`: the IC50 is 12.6 µM and the IC90 is more than 100 µM.

In the case of `COc1ccc(NC(=O)CCc2nc(-c3ccc(C)cc3)no2)cc1Cl`, the IC50 was 3.59 µM, the IC90 was more than 100 µM and the CC50 was more than 40 µM.

On to `CCN1CCN(c2cc3c(cc2F)c(=O)c(C(=O)O)cn3C2CC2)CC1`, for which the IC50 is less than 0.391 µM and the IC90 was less than 0.391 µM.

The molecule `COc1ccc(N2Cc3ccccc3C2)cc1Cl` yielded an IC90 of more than 100 µM.

Take `Nc1nc(Nc2cccc(Cl)c2)nc(NCc2ccco2)c1[N+](=O)[O-]`: the IC50 is 29.9 µM, the 90% effect concentration (IC90) was more than 100 µM and the CC50 is more than 40 µM.

As for `O=C(NCc1nnc2c3ccccc3c(-c3ccccc3)nn12)c1ccc(Cl)cc1`, the IC50 is 3.04 µM, the concentration for an effect of 90% (IC90) turned out to be 3.32 µM and the CC50 was more than 40 µM.

Turning to `O=C(Nc1nc(-c2ccccn2)cs1)c1ncc(Cl)c(Cl)c1Cl`, the IC50 was 1.45 µM, the concentration for an effect of 90% (IC90) was 5.3 µM and the CC50 came to 31.7 µM.

For `COC(=O)C(C)Oc1ccc(-c2nccc(-c3cccs3)n2)cc1` (stereo not drawn), the IC50 was 0.829 µM and the concentration for an effect of 90% (IC90) was found to be 2.74 µM.

Take `O=S1(=O)C=C(Sc2nc3cc(Cl)ccc3o2)c2ccccc21`: the concentration for half-maximal inhibition (IC50) was 2.9 µM, the IC90 was 3.18 µM and the CC50 amounted to 16.1 µM.

As to `COc1cccc(CC2(CO)CCCN(Cc3[nH]c4ccc(C)cc4c3C)C2)c1` (stereo not drawn), the IC50 was 8.49 µM, the IC90 amounted to 11.2 µM and the CC50 is more than 40 µM.

For the molecule `O=[N+]([O-])c1cc(/C=N/N/C(=N/c2ccccn2)c2ccccn2)ccc1O`, the IC50 is 17.9 µM, the IC90 is more than 100 µM and the CC50 was 26.8 µM.

Take `CC(=O)Nc1sc2c(c1CN1CCN(c3ccc(F)cc3)CC1)CCCC2`: the IC50 is 13.2 µM, the IC90 is more than 100 µM and the CC50 was more than 40 µM.

In the case of `CCOC(=O)N1CCN(c2nc(N(c3ccccc3)c3ccccc3)nc(-n3ccnc3)n2)CC1`, the IC50 was 8.91 µM, the concentration for an effect of 90% (IC90) worked out at 11.3 µM and the CC50 is more than 40 µM.

`O=c1[nH]c(-c2ccccn2)nc2sc(-c3ccccc3)cc12`: the IC50 was less than 0.391 µM, the IC90 came to 0.553 µM and the CC50 came out at 2.2 µM.

Consider `CC(C)(C)c1ccc(OC(=O)c2ccc3snnc3c2)cc1`, for which the 50% inhibitory concentration (IC50) was 5.94 µM and the IC90 is more than 100 µM.

As for `COc1ccc(C[C@H]2CN3C(=NC[C@@H]3Cc3ccccc3)N2CCNC(=O)CCC2CCCCC2)cc1`, the half-inhibitory concentration (IC50) was 9.05 µM, the IC90 came out at 11.6 µM and the CC50 was 17.7 µM.

As to `O=C(OCC#CCSc1nc2ccccc2o1)c1cc2ccccc2o1`, the 50% inhibitory concentration (IC50) is 5.72 µM, the IC90 stood at 12.7 µM and the cytotoxic concentration (CC50) is more than 40 µM.

On to `Oc1cc(-c2ccccc2)c2ccccc2c1`, for which the IC50 is 27.2 µM, the IC90 was more than 100 µM and the CC50 was more than 40 µM.

Regarding `CCn1c(NC(=O)c2ccccc2)nc2ccccc21`, the half-maximal inhibitory concentration (IC50) is 1.71 µM, the 90% effect concentration (IC90) stood at 8.64 µM and the half-maximal cytotoxic concentration (CC50) was more than 40 µM.

Consider `O=C(NCc1cccnc1)/C(=C/c1ccc(-c2ccc(Cl)cc2)o1)S(=O)(=O)c1ccccc1`, for which the IC50 was 3.9 µM, the IC90 came out at 29.7 µM and the CC50 was determined as 24 µM.

As for `CCCCCn1c(N2CCC(Cc3ccccc3)CC2)nc2c1c(=O)[nH]c(=O)n2C`, the 50% inhibitory concentration (IC50) was 11.8 µM, the IC90 worked out at 13.4 µM and the CC50 was determined as 24.1 µM.

For `CCOC(=O)CSc1nc(N)c(C#N)c(-c2cccs2)c1C#N`, the IC50 is 1.59 µM and the IC90 amounted to 3.27 µM.

With `O=[N+]([O-])c1ccc(COc2ccc(-c3[nH]ncc3-c3ccc(Cl)cc3)c(O)c2)cc1`, the IC50 is 23 µM, the IC90 is more than 100 µM and the CC50 was more than 40 µM.

`Cc1ccc(CN2CCSc3ccc(C(=O)NC4CCN(Cc5ccccc5)CC4)cc32)cc1` registered a half-maximal cytotoxic concentration (CC50) of 18.4 µM. That is a double-digit micromolar value.

On to `Cc1ccc(C(=O)Nc2nc(C)c(C(=O)Nc3ccc4c(c3)CCC4)s2)cc1`, for which the half-inhibitory concentration (IC50) is 2.67 µM, the IC90 came to 5.77 µM and the CC50 turned out to be 7.56 µM.

As to `CC(=O)c1ccc(OCC(=O)Nc2ccc3c(c2)CCC3)cc1`, the 50% inhibitory concentration (IC50) was 12.6 µM, the concentration for an effect of 90% (IC90) was more than 100 µM and the CC50 was more than 40 µM.

For the molecule `COc1ccc(NS(=O)(=O)c2cc(NC(=O)[C@@H](NC(=O)c3ccccc3)C(C)C)ccc2C)cc1`, the CC50 is 23.3 µM.

`N=C(N)c1ccc(OCCCCCOc2ccc(C(=N)N)cc2)cc1`: the IC50 is 1.51 µM, the IC90 is 1.72 µM and the CC50 was more than 40 µM.

In the case of `COC(=O)CSc1nc(N)c2c3c(sc2n1)C(c1ccccc1)SC(c1ccccc1)C3` (stereo not drawn), the half-maximal inhibitory concentration (IC50) was 14.4 µM, the IC90 is more than 100 µM and the CC50 is 7.1 µM.

For the molecule `CC(C)COCC(CN(Cc1ccccc1)c1ccccc1)N1CCCC1` (stereo not drawn), the IC50 is 14.8 µM, the IC90 is 20.1 µM and the CC50 was more than 40 µM.

Turning to `CCc1ccc(Nc2c([N+](=O)[O-])c(=O)oc3ccccc23)cc1`, the IC90 is more than 100 µM and the CC50 was more than 40 µM.

For the molecule `COc1ccccc1N1CCN(c2nc(C)nc3c2oc2ccccc23)CC1`, the IC50 is 1.74 µM, the IC90 worked out at 3.89 µM and the CC50 was 5.01 µM.

In the case of `O=C(OCC#CCSc1nc2ccccc2o1)c1ccco1`, the IC50 was 4.27 µM and the IC90 is 12.4 µM.

As for `COC(=O)CSc1nc(N)c(C#N)c(CC(C)C)c1C#N`, the IC50 was 2.91 µM and the IC90 amounted to 57.5 µM.

As to `CCCCCc1cc(=O)oc2c(C(CCN3CCCC3)c3ccc(N(C)C)cc3)c(OC)cc(OC)c12` (stereo not drawn), the IC50 was 4.38 µM, the IC90 was determined as 6.04 µM and the CC50 worked out at 14 µM.

For `CCN(CC)c1ccc(N=Cc2c(C)[nH]c3ccccc23)cc1`, the concentration for half-maximal inhibition (IC50) was 22.1 µM, the IC90 amounted to 35.1 µM and the 50% cytotoxic concentration (CC50) is more than 40 µM.

For `COc1ccc(CNC[C@@H](CCCCN(C)Cc2ccc(OC)cc2)N2C[C@H](c3ccccc3)N(CCc3ccc(Cl)c(Cl)c3)C(=O)C2=O)cc1`, the IC50 was 12.2 µM, the IC90 came to 19.2 µM and the CC50 amounted to 11.5 µM.

`N#CC(c1cccc(Cl)c1)c1ccc2c(C(F)(F)F)cc(C(F)(F)F)nc2n1` (stereo not drawn): the CC50 was determined as 0.415 µM.

Source of the values: PubChem BioAssay AID1626 (SRMLSC, 2009).
